US10391095B2, “DNA-PK inhibitors” (Vertex Pharmaceuticals Incorporated, priority 2012, dated 2019)

Biological target: DNA-PK (Homo sapiens, UniProt P78527)
Experiment: DNA-PK inhibition assay (radiometric, 33P-ATP)
Format: biochemical
Conditions: 100 μM ATP, competitive tight-binding fit
Method: Compounds were screened for their ability to inhibit DNA-PK kinase using a standard radiometric assay. Briefly, in this kinase assay the transfer of the terminal ^33P-phosphate in ^33P-ATP to a peptide substrate is interrogated. The assay was carried out in 384-well plates to a final volume of 50 μL per well containing approximately 6 nM DNA-PK, 50 mM HEPES (pH 7.5), 10 mM MgCl2, 25 mM NaCl, 0.01% BSA, 1 mM DTT, 10 μg/mL sheared double-stranded DNA (obtained from Sigma), 0.8 mg/mL DNA-PK peptide ([…] obtained from American Peptide), and 100 μM ATP. Accordingly, compounds of the invention were dissolved in DMSO to make 10 mM initial stock solutions. Serial dilutions in DMSO were then made to obtain the final solutions for the assay. A 0.75 μL aliquot of DMSO or inhibitor in DMSO was added to each well, followed by the addition of ATP substrate solution containing ^33P-ATP (obtained from Perkin Elmer). The reaction was started by the addition of DNA-PK, peptide and ds-DNA. After 45 min, the reaction was quenched with 25 μL of 5% phosphoric acid. The reaction mixture was transferred to MultiScreen HTS 384-well PH plates (obtained from Millipore), allowed to bind for one hour, and washed three times with 1% phosphoric acid. Following the addition of 50 μL of Ultima Gold™ high efficiency scintillant (obtained from Perkin Elmer), the samples were counted in a Packard TopCount NXT Microplate Scintillation and Luminescence Counter (Packard BioScience). The Ki values were calculated using Microsoft Excel Solver macros to fit the data to the kinetic model for competitive tight-binding inhibition.

Ki, < 30 nM:
COC(=O)c1ccc(C(C)CNc2cc(-c3ccc(N4CCN(C(C)=O)CC4)nc3)ncn2)c(OC)c1 (stereo not shown) [Compound 116], CNC(=O)c1ccnc2c([C@H](C)CNc3cc(-c4cncc(N5CCOCC5)c4)ncn3)cccc12 [Compound 912], CNC(=O)c1ccnc2c([C@H](C)CNc3cc(-c4cc(OC)nc(OC)c4)ncn3)cccc12 [Compound 889], CNC(=O)c1ccc(C(C)CNc2cc(-c3ccc(CCO)cc3)ncn2)c(OC)c1 (stereo not shown) [Compound 339], CCNc1ccc(-c2cc(NC[C@@H](C)c3ccnc4c3OCC4)ncn2)cn1 [Compound 486], CNC(=O)c1ccnc2c([C@H](C)CNc3cc(-c4ccc(=O)n(C)c4)ncn3)cccc12 [Compound 655], Cc1ccc(-c2cc(NCC(C)c3ccccc3OCC3CC3)ncn2)cn1 (stereo not shown) [Compound 186], CCNC(=O)c1ccnc2c([C@H](C)CNc3cc(-c4ccc(C)nc4)ncn3)cccc12 [Compound 545], CNC(=O)c1ccc(C(C)CNc2cc(-c3ccc4ncccc4c3)ncn2)c(OC)c1 (stereo not shown) [Compound 256], Cc1ccc(-c2cc(NCC(C)c3ccncc3OC3CC3)ncn2)cn1 (stereo not shown) [Compound 287], CNC(=O)c1ccnc2c([C@H](C)CNc3cc(-c4ccc(C(C)OC)cc4)ncn3)cccc12 (stereo partly shown) [Compound 811], CNC(=O)c1ccnc2c([C@H](C)CNc3cc(-c4cncc(C)c4)ncn3)cccc12 [Compound 792], CNC(=O)c1ccnc2c([C@H](C)CNc3cc(-c4cnc(CO)c(OC)c4)ncn3)cccc12 [Compound 821], COc1ccccc1[C@H](C)CNc1cc(-c2ccc(Nc3nc[nH]n3)nc2)ncn1 [Compound 198], CNC(=O)c1ccc([C@H](C)CNc2cc(-c3cnc4c(ccn4C4COC4)c3)ncn2)c(OC)c1 [Compound 252], COc1ccccc1CCNc1cc(-c2cnc3c(ccn3CC3CC3)c2)ncn1 [Compound 40], CNC(=O)c1ccnc2c([C@H](C)CNc3cc(-c4ccnc(N5CCCC5=O)c4)ncn3)cccc12 [Compound 893], CC(CNc1cc(-c2ccc(N3CCN(C)CC3)nc2)ncn1)c1ccccc1OC(F)F (stereo not shown) [Compound 63], CNC(=O)c1ccnc2c([C@H](C)CNc3cc(-c4ccc(NCCN5CCNC5=O)nc4)ncn3)cccc12 [Compound 719], CNC(=O)c1ccnc2c([C@H](C)CNc3cc(-c4ccc(F)nc4)ncn3)cccc12 [Compound 603], CN1CCN(c2ccc(-c3cc(NCCc4ccccc4OC4CC4)ncn3)cn2)CC1 [Compound 87], CNC(=O)c1ccnc2c([C@H](C)CNc3cc(-c4ccc(C5CCC5)nc4)ncn3)cccc12 [Compound 845], COc1cc(SC)ccc1C(C)CNc1cc(-c2ccc(N3CCN(C(C)=O)CC3)nc2)ncn1 (stereo not shown) [Compound 73], CNC(=O)c1ccnc2c([C@H](C)CNc3cc(-c4cncc(COC)c4)ncn3)cccc12 [Compound 840], Cc1ccc(-c2cc(NC[C@@H](C)c3cccc4c3OCC4)ncn2)cn1 [Compound 134], CNC(=O)c1ccnc2c([C@H](C)CNc3cc(-c4cncnc4)ncn3)cccc12 [Compound 605], Cc1ccc(-c2cc(NCC(C)c3cnccc3OC3CC3)ncn2)cn1 (stereo not shown) [Compound 165], CNC(=O)c1ccc(C(C)CNc2cc(-c3cnc4c(cnn4C[C@@H](O)CO)c3)ncn2)c(OC)c1 (stereo partly shown) [Compound 225], CNC(=O)c1ccnc2c([C@H](C)CNc3cc(-c4cnc(N5CCOCC5)nc4)ncn3)cccc12 [Compound 650], Cc1cc([C@H](C)CNc2cc(-c3ccc4ncccc4c3)ncn2)c2c(n1)CCO2 [Compound 508], CNCCCNc1ccc(-c2cc(NC[C@@H](C)c3ccccc3OC)ncn2)cn1 [Compound 201], CNC(=O)c1c(F)cnc2c([C@H](C)CNc3cc(-c4ccc(C5(N)CC5)nc4)ncn3)cccc12 [Compound 941], CCNc1ncc(-c2cc(NC[C@@H](C)c3cccc4c(C(=O)NC)c(F)cnc34)ncn2)cn1 [Compound 978], COc1cc(C=O)ccc1C(C)CNc1cc(-c2ccc(C)nc2)ncn1 (stereo not shown) [Compound 378], CNC(=O)c1ccnc2c([C@H](C)CNc3cc(-c4ccc(C5(O)COC5)cc4)ncn3)cccc12 [Compound 809], CNC(=O)c1c(F)cnc2c([C@H](C)CNc3cc(-c4ccnc(C5CCC5)c4)ncn3)cccc12 [Compound 919], Cc1ncc(-c2cc(NC[C@@H](C)c3ccnc4c3OCC4)ncn2)cn1 [Compound 416], CNC(=O)c1ccc([C@H](C)CNc2cc(-c3cnc4c(ccn4CC4CC4)c3)ncn2)c(OC)c1 [Compound 253], CNC(=O)c1c(F)cnc2c([C@H](C)CNc3cc(-c4ccc(NC5CC5)nc4)ncn3)cccc12 [Compound 921], CNC(=O)c1ccnc2c([C@H](C)CNc3cc(-c4cncc(C(C)(C)O)c4)ncn3)cccc12 [Compound 879], CNC(=O)c1ccc([C@H](C)CNc2cc(-c3ccc(Nc4ccncc4)nc3)ncn2)c(OC)c1 [Compound 396], CNC(=O)c1ccnc2c([C@H](C)CNc3cc(-c4ccc(N5CCN(CC(F)(F)F)CC5)nc4)ncn3)cccc12 [Compound 780], CNC(=O)c1ccnc2c([C@H](C)CNc3cc(-c4cnc(O)nc4)ncn3)cccc12 [Compound 768], COc1ccccc1CCNc1cc(-c2cnc3c(ccn3C(C)C)c2)ncn1 [Compound 37], CNC(=O)c1c(F)cnc2c([C@H](C)CNc3cc(-c4cnc(OC)c(CO)c4)ncn3)cccc12 [Compound 884], COc1cc(-c2cc(NC[C@@H](C)c3ccnc4c3OCC4)ncn2)cnc1OC [Compound 595], CNCCCNc1cc(-c2cc(NC[C@@H](C)c3ccccc3OC)ncn2)ccn1 [Compound 209], CNC(=O)c1c(F)cnc2c([C@H](C)CNc3cc(-c4ccc(C5CCC5)nc4)ncn3)cccc12 [Compound 855], COc1ccc(Br)cc1C(C)CNc1cc(-c2ccc(C)nc2)ncn1 (stereo not shown) [Compound 245], COCc1ccc(-c2cc(NC[C@@H](C)c3ccnc4c3OCCO4)ncn2)cc1 [Compound 458], CCCNCCNc1ccc(-c2cc(NC[C@@H](C)c3cccc4c(C(=O)NC)ccnc34)ncn2)cn1 [Compound 705], CNC(=O)c1ccnc2c([C@H](C)CNc3cc(-c4ccc(NC(C)=O)cc4)ncn3)cccc12 [Compound 749], CNC(=O)c1ccc(C(C)CNc2cc(-c3cnc(C)nc3)ncn2)c(OC)c1 (stereo not shown) [Compound 193], COCCn1ncc2cc(-c3cc(NC[C@@H](C)c4ccccc4OC)ncn3)cnc21 [Compound 139], CNC(=O)c1ccnc2c([C@H](C)CNc3cc(-c4ccc(C)nc4)ncn3)ccnc12 [Compound 624], CNC(=O)c1ccc([C@H](C)CNc2cc(-c3cnc4c(c3)OCCN4C)ncn2)c(OC)c1 [Compound 490], COc1ccccc1[C@H](C)CNc1cc(-c2ccc(F)nc2)ncn1 [Compound 96], CNC(=O)c1ccc([C@H](C)CNc2cc(-c3ccc(N(C)C(C)C4CC4)nc3)ncn2)c(OC)c1 (stereo partly shown) [Compound 341], CNC(=O)c1ccnc2c([C@H](C)CNc3cc(-c4ccc(N(C)CC5CC5)nc4)ncn3)cccc12 [Compound 625], CNC(=O)c1ccc([C@H](C)CNc2cc(-c3ccc(N4CCCC4)nc3)ncn2)c(OC)c1 [Compound 363], COc1ccccc1[C@H](C)CNc1cc(-c2cnc3c(cnn3CC3CC3)c2)ncn1 [Compound 140], CNC(=O)c1ccnc2c([C@H](C)CNc3cc(-c4ccnc(N5CCOCC5)c4)ncn3)cccc12 [Compound 818], CNC(=O)c1ccnc2c([C@H](C)CNc3cc(-c4cnc(N5CCCC(O)C5)nc4)ncn3)cccc12 (stereo partly shown) [Compound 728], C[C@H](CNc1cc(-c2cnc(NCCO)nc2)ncn1)c1ccnc2c1OCCO2 [Compound 457], CNC(=O)c1ccnc2c([C@H](C)CNc3cc(-c4ccc(NC5CC5)nc4)ncn3)ccc(F)c12 [Compound 943], CNC(=O)c1ccc(-c2cc(NC[C@@H](C)c3cccc4c(C(=O)NC)ccnc34)ncn2)cc1F [Compound 807], CNC(=O)c1ccc(C(C)CNc2cc(-c3ccc4c(c3)c(C)nn4C3COC3)ncn2)c(OC)c1 (stereo not shown) [Compound 279], CNC(=O)c1ccnc2c([C@H](C)CNc3cc(-c4ccc(N5CCN(C(C)C)CC5)nc4)ncn3)cccc12 [Compound 722], CNC(=O)c1ccc([C@H](C)CNc2cc(-c3ccc(N(C)CCOC)nc3)ncn2)c(OC)c1 [Compound 370], CNC(=O)c1c(F)cnc2c([C@H](C)CNc3cc(-c4ccnc(C5CC5)c4)ncn3)cccc12 [Compound 917]
